Measured values as given in patent US20260240850A1, “Compositions and Methods for Treating MALT1 Associated Diseases” (Rarefied Biosciences, Inc., priority 2023, published 2026).

Columns and labels:
[1] = tested on: mTor pathway (e.g., mTORc1 and/or mTORc2) in primary T cells; assay: mTor pathway activation in stimulated primary T cells, pAkt/pS6 staining (Example 3); format: cell-based; conditions: primary T cells after anti-CD3/anti-CD28 activation
Experimental: Primary T cells are stimulated to activation and cultured in the presence of IL-2. For stimulation, cells are preincubated with anti-CD3F and anti-CD28 on ice and washed. Cells were stimulated by crosslinking the anti-CD3 antibody with a secondary antibody (e.g., anti-mouse IgG for 10 min) in complete T cell media and then fixed with pre-warmed fixation buffer. Cells are then washed with FACS buffer and permeabilized with permeabilization buffer pre-chilled to −20° C. and incubated for 30 min on ice. Cells are washed and then stained with the following antibodies or appropriate isotype controls anti-pAkt (Ser473) and anti-pS6 (Ser240/244).
MALT1 inhibitors (e.g., Compounds 1.1, 1.26, 1.27, 1.30, 1.33, 2.1, and/or 2.4) are incubated with the primary T cells after activation.

full-length human MALT1 = biological target: T1, full-length human MALT1 (Homo sapiens, UniProt Q9UDY8); assay: MALT1 cleavage of HOIL1 (Example 5); format: biochemical; conditions: HOIL1 0.05 μg/μL with MALT1, 2 h at 37° C.; gel electrophoresis/immunoblot
T1 construct: Recombinant full-length human MALT1 protein was expressed and purified; made in house
T1 sequence (Q9UDY8 1-824): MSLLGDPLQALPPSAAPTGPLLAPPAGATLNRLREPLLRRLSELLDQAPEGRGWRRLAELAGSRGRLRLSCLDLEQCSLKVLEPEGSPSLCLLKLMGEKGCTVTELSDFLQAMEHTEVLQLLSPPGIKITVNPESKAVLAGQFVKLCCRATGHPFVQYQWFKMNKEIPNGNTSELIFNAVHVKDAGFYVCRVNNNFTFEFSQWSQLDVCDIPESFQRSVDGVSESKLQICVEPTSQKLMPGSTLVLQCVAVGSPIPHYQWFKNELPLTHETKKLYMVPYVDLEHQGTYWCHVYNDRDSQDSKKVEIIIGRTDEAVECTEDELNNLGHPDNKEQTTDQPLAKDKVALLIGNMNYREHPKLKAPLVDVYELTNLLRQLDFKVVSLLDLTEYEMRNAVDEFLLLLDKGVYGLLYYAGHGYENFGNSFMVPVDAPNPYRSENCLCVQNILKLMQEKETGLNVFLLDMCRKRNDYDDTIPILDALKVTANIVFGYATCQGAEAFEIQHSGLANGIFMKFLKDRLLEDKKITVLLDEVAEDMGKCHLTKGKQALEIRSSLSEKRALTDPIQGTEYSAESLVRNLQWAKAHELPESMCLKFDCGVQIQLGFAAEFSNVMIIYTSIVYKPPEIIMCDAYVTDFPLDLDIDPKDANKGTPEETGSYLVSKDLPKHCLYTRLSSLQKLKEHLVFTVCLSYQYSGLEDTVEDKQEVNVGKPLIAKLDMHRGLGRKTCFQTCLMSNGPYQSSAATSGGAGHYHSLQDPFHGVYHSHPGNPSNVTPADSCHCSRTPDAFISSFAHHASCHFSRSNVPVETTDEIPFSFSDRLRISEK
Experimental: Recombinant full-length human MALT1 protein was expressed and purified. C-terminal Myc-FLAG-tagged full-length human HOIL1 was obtained from Origene. HOIL1 protein (0.05 μg/μL) is incubated with different concentrations of MALT1 in assay buffer (200 mM Tris-HCl, 0.8 M Na citrate, 0.1 mM EGTA, 0.05% CHAPS, 1 mM DTT, pH 7.4) for 2 h at 37° C. Cleavage of HOIL1 was analyzed by gel electrophoresis using a 4-12% Bis-Tris SDS-polyacrylamide (PAGE) gradient gel (Life Technologies). The presence of a small fragment was confirmed by immunoblotting with an N-terminal antibody (anti-N-terminal HOIL1; HPA024185; Sigma). Total HOIL1 was observed using a C-terminal directed antibody (anti-FLAG, clone M2, Sigma). These assays are performed with both the cleavable HOIL1 and, as a negative control, a non-cleavable HOIL1 (where Lys is substituted for Arg165).

patients with BENTA = assay: Clinical trial of MALT1 inhibitors for BENTA (Example 2); format: in vivo; conditions: oral once daily, 25 mg/day up to 1000 mg/day
Experimental: MALT1 inhibitors (e.g., Compounds 1.1, 1.26, 1.27, 1.30, 1.33, 2.1, and/or 2.4) are used to treat patients with BENTA. MALT1 inhibitors (e.g., Compounds 1.1, 1.26, 1.27, 1.30, 1.33, 2.1, and/or 2.4) are formulated in an oral dosage form and administered to patients once daily at a starting dose of 25 mg/day. Alternatively, the daily dose is escalated from 25 mg/day to 1000 mg/day.

[2] = tested on: T cells that lack endogenous CARD11 and bear transfected CARD11 gain-of-function mutations; κB-GFP readout of NFκB signaling; assay: NF-κB-GFP reporter in T cells transfected with CARD11 gain-of-function cDNA (Example 1); format: cell-based; conditions: T cells with CARD11 GOF variants; baseline and after anti-CD3 or PMA/ionomycin; flow cytometry
Experimental: MALT1 inhibitors (e.g., Compounds 1.1, 1.26, 1.27, 1.30, 1.33, 2.1, and/or 2.4) are incubated with T cells that lack endogenous CARD11 and bear transiently transfected CARD11 cDNA bearing gain-of-function mutations. An optional variation is co-transfecting 50:50 a copy of the wildtype CARD11 gene with the CARD11 gain of function mutant. The T-cells include a reporter gene (κB-GFP) that acts as a readout of NFκB signaling. The expression of NF-κB-GFP at baseline and after anti-CD3, or PMA/ionomycin stimulation is measured.
T-Cells bearing GOF variants of CARD11 have elevated baseline activation of NF-κB-GFP, and higher still after stimulation, which is assessed by flow cytometry.

[3] = tested on: epithelial cells (e.g., HEK293 cells) bearing CARD14 gain-of-function mutations; κB-GFP readout of NFκB signaling; assay: NF-κB-GFP reporter in epithelial cells transfected with CARD14 gain-of-function cDNA (Example 4); format: cell-based; conditions: epithelial cells with CARD14 GOF variants; flow cytometry
Experimental: MALT1 inhibitors (e.g., Compounds 1.1, 1.26, 1.27, 1.30, 1.33, 2.1, and/or 2.4) are incubated with epithelial cells (e.g., HEK293 cells) that lack endogenous CARD14 and bear transiently transfected CARD14 cDNA bearing gain-of-function mutations. The epithelial cells include a reporter gene (κB-GFP) that acts as a readout of NFκB signaling. The expression of NF-κB-GFP at baseline and after anti-CD3, or PMA/ionomycin stimulation is measured.
Epithelial cells bearing gain of function variants of CARD14 have elevated baseline activation of NF-κB-GFP, and higher still after stimulation, which is assessed by flow cytometry.

SMILES	mTor pathway (mTORc1 and/or mTORc2) activation [1]	cleavage of HOIL1 (full-length human MALT1)	BENTA symptoms (patients with BENTA)	Jun/Fos, NF-κB and/or mTor pathway activation in patients (patients with BENTA)	NF-κB-GFP expression [2]	NF-κB-GFP expression [3]
CO[C@@H](C)c1c(Nc2ccc([C@@H](N(C)C(=O)C3CCS(=O)(=O)CC3)C(F)(F)F)cc2)cnc2nc(Cl)nn12 [Compound 1.26, N-[(1R)-1-[4-({2-chloro-7-[(1S)-1-methoxyethyl]-[L2,4]triazolo[1,5-a]pyrimidin-6-yl}amino)phenyl]-2,2,2-trifluoroethyl]-N-methyl-1,1-dioxo-1λ^6-thiane-4-carboxamide]	suppress mTor pathway (e.g., mTORc1 and/or mTORc2) activation	cleavage of HOIL1 is reduced	amelioration of their BENTA symptoms	reduced Jun/Fos, and/or NF-κB and/or a mTor pathway (e.g., mTORc1 and/or mTORc2) activation	lowered NF-κB-GFP expression	lowered NF-κB-GFP expression
CO[C@H](C)c1c(Nc2ccc([C@@H](N(C)C(=O)C3CCS(=O)(=O)CC3)C(F)(F)F)cc2)cnc2nc(Cl)nn12 [Compound 1.27, N—[(IR)—I-[4-({2-chloro-7-[(1R)-1-methoxyethyl]-[1,2,4]triazolo[1,5-a]pyrimidin-6-yl}amino)phenyl]-2,2,2-trifluoroethyl]-N-methyl-1,1-dioxo-1λ^6-thiane-4-carboxamide]	suppress mTor pathway (e.g., mTORc1 and/or mTORc2) activation	cleavage of HOIL1 is reduced	amelioration of their BENTA symptoms	reduced Jun/Fos, and/or NF-κB and/or a mTor pathway (e.g., mTORc1 and/or mTORc2) activation	lowered NF-κB-GFP expression	lowered NF-κB-GFP expression
CO[C@@H](C)c1c(Nc2ccc([C@H](N(C)C(=O)C3CCS(=O)(=O)CC3)C(F)(F)F)c(C)c2)cnc2nc(Cl)nn12 [Compound 1.30, N-[(1S)-1-[4-({2-chloro-7-[(1S)-1-methoxyethyl]-[1,2,4]triazolo[1,5-a]pyrimidin-6-yl}amino)-2-methylphenyl]-2,2,2-trifluoroethyl]-N-methyl-1,1-dioxo-1λ^6-thiane-4-carboxamide]	suppress mTor pathway (e.g., mTORc1 and/or mTORc2) activation	cleavage of HOIL1 is reduced	amelioration of their BENTA symptoms	reduced Jun/Fos, and/or NF-κB and/or a mTor pathway (e.g., mTORc1 and/or mTORc2) activation	lowered NF-κB-GFP expression	lowered NF-κB-GFP expression
CO[C@@H](C)c1c(Nc2ccc([C@H](N(C)C(=O)C3CCS(=O)(=O)CC3)C(F)(F)F)cc2C)cnc2nc(Cl)nn12 [Compound 1.33, N-[(1S)-1-[4-({2-chloro-7-[(1S)-1-methoxyethyl]-[1,2,4]triazolo [1,5-a]pyrimidin-6-yl}amino)-3-methylphenyl]-2,2,2-trifluoroethyl]-N-methyl 1,1-dioxo-1λ^6-thiane-4-carboxamide]	suppress mTor pathway (e.g., mTORc1 and/or mTORc2) activation	cleavage of HOIL1 is reduced	amelioration of their BENTA symptoms	reduced Jun/Fos, and/or NF-κB and/or a mTor pathway (e.g., mTORc1 and/or mTORc2) activation	lowered NF-κB-GFP expression	lowered NF-κB-GFP expression
CN(C(=O)[C@H]1CC[C@H](C(=O)O)CC1)[C@@H](c1ccc(Nc2cnn(-c3ccccc3)c2C(F)(F)F)cc1)C(F)(F)F [Compound 2.1]	suppress mTor pathway (e.g., mTORc1 and/or mTORc2) activation	cleavage of HOIL1 is reduced	amelioration of their BENTA symptoms	reduced Jun/Fos, and/or NF-κB and/or a mTor pathway (e.g., mTORc1 and/or mTORc2) activation	lowered NF-κB-GFP expression	lowered NF-κB-GFP expression
